Laboratory results reported in patent publication US11535597B2, “Photoreactive ligands and uses thereof” (The Scripps Research Institute, priority 2017, dated 2022).

Tested on: proteins in HEK293T cells
Assay: MS-based mapping of FFF probe-modified peptides (isoTOP, sites of labeling)
Type: binding, human
Description: Preparation and analysis was adapted from methods previously reported. In brief, for global mapping of fragment probe-modified peptides, separate 10 cm dishes of cells were treated with probes (200-250 μM) in 3.0 mL of DMEM (serum-free) and (if applicable) competitor ligands, proteomes harvested and subjected to click chemistry conditions with either light or heavy isotopically labeled biotin-TEV-azide (10 μL of 5 mM stocks in DMSO, final concentration=100 μM), TCEP, ligand and CuSO4 as detailed above. The samples were allowed to react for 1 h at which point the samples were centrifuged (16,000 g, 5 min, 4° C.). The resulting pellets were sonicated in ice-cold methanol (500 μL) and the resuspended light- and heavy-labeled samples were then combined and centrifuged (16,000 g, 5 min, 4° C.). The pellets were then solubilized in PBS containing 1.2% SDS (1 mL) with sonication and heating (5 min, 95° C.). Samples were transferred to falcon tubes containing DPBS (5 mL), to which a 100 μL of streptavidin-agarose beads slurry was added. After incubation, the beads (3 hr) were pelleted by centrifugation (1,400 g, 3 min) and were washed (2×10 mL PBS and 2×10 mL water). The beads were transferred to eppendorf tubes with 1 mL DPBS, centrifuged (1,400 g, 3 min), and resuspended in PBS containing 6 M urea. To this was added 10 mM DTT (25 μL of a 200 mM stock in water) and the beads were incubated at 65° C. for 15 mins. 20 mM iodoacetamide (25 μL of a 400 mM stock in water) was then added and allowed to react at 37° C. for 30 mins with shaking. The bead mixture was diluted with 900 μL PBS, pelleted by centrifugation (1,400 g, 3 min), and resuspended in 200 μL 2M urea (DPBS) containing trypsin and CaCl2 as described above. The beads were separated from the digest by centrifugation (1,000 g, 1 min), washed (2×1 mL PBS and 2×1 mL water) and then transferred to fresh eppendorfs with 1 mL water. The washed beads were washed once further in 150 μL TEV buffer (50 mM Tris, pH 8, 0.5 mM EDTA, 1 mM DTT) by centrifugation (1,400 g, 3 min) and the resuspended in 150 μL TEV buffer. 5 μL TEV protease (80 μM) was added and the reactions were rotated overnight at 29° C. The TEV digest was separated from the beads by centrifugation (1,400 g, 3 min) and the beads were washed once with water (100 μL). The samples were then acidified to a final concentration of 5% (v/v) formic acid and stored at −80° C. prior to analysis.
The resulting probe-modified peptides were collected for MS analysis, which was performed as described above with differences in the salt bumps applied in the chromatographic gradients which in this case were 0%, 30%, 60%, 90% and 100% NH4OAc (500 μM). The protein identification searches of the MS data were performed with the following changes applied to identify the peptides modified with the corresponding fragment probe and the cleaved TEV tag. All amino acids were considered as possible residues for modification. To facilitate the computational searches, sets of up to 3 amino acids were searched using ProLuCID and filtered with DTASelect as described above. […] The isoTOP ratios for probe labeled peptides were quantified using the in-house software CIMAGE.
For each protein in the site-of-labeling dataset, the UniProtKB accession number was used to map and collect relevant structures from the RCSB Protein Data Bank (PDB) fulfilling the following criteria: structures determined by X-ray crystallography, wild-type protein, Homo sapiens as the sole source organism. […] Fpocket 2.0 was used to detect potential binding pockets for the resultant structures with all parameters set at recommended default. Pockets with volume less than 500 Å^3 were removed from output prior to further analysis. Residues surrounding fpocket predicted binding pockets for each protein were collected to determine the number of residues overlapping with isoTOP peptides.

[1] = protein PSMA2 Proteasome subunit alpha type-2 (P25787)
[2] = protein PSMA2 Proteasome subunit alpha type-2, residues of the probe-labeled peptide

C#CCCC1(CCC(=O)NC2N=C(c3ccccc3)c3ccccc3NC2=O)N=N1 (centres unmarked) [probe 2, 3-(3-(But-3-yn-1-yl)-3H-diazirin-3-yl)-N-(2-oxo-5-phenyl-2,3-dihydro-1H-benzo[e][1,4]diazepin-3-yl)propanamide]
Labeled Peptide of GSTP1 Glutathione S-transferase P (Accession P09211, residues of probe-labeled peptide, family Enzymes): 56-71
Labeled Peptide of HNRNPH3 Heterogeneous nuclear ribonucleoprotein H3 (Accession P31942, residues of probe-labeled peptide, family Transcription factors, Regulators): 324-343
Labeled Peptide of FUS RNA-binding protein FUS (Accession P35637, residues of probe-labeled peptide, family Transcription factors, Regulators): 335-348
Labeled Peptide (GSTP1 Glutathione S-transferase P, residues of probe-modified peptide): 56-71
Labeled Peptide (HNRNPL Heterogeneous nuclear ribonucleoprotein L, residues of probe-modified peptide): 399-411
Labeled Peptide (MESDC2 LDLR chaperone MESD (Q14696), residues of the probe-labeled peptide): 113-127
Labeled Peptide (NOC2L (Q9Y3T9), residues of the probe-labeled peptide): 591-606
Labeled Peptide (P09211 GSTP1 Glutathione S-transferase P): 56-71
Labeled Peptide (residues) of PPP1CC Serine/threonine-protein phosphatase PP1-gamma cat (P36873, peptide IYGFYDECK, PDB 4UT2): 133-141
Labeled Peptide (P55263 ADK Adenosine kinase): 209-224
Labeled Peptide (residues) of PPP1CA Serine/threonine-protein phosphatase PP1-alpha cat (P62136, peptide IYGFYDECK, PDB 4XPN): 133-141
Labeled Peptide (protein ADK (P55263), residues of probe-labeled peptide): 209-224
Labeled Peptide (protein ADK Adenosine kinase, residues of probe-labeled peptide): 209-224
Labeled Peptide (protein BSG Basigin (P35613), residues of probe-labeled peptide): 228-243
Labeled Peptide (protein CLPTM1 Cleft lip and palate transmembrane protein 1 (O96005), residues of probe-labeled peptide): 548-562
Labeled Peptide (protein EIF3E Eukaryotic translation initiation factor 3 submit (P60228), residues of probe-labeled peptide): 173-191
Labeled Peptide (protein EIF3H Eukaryotic translation initiation factor 3 submit (O15372), residues of probe-labeled peptide): 207-220
Labeled Peptide (protein EQSR1 RNA-binding protein EWS (Q01844), residues of probe-labeled peptide): 269-292
Labeled Peptide (protein FARSB Phenylalanine--tRNA ligase beta subunit, residues of probe-labeled peptide): 518-530
Labeled Peptide (protein FARSB Phenylalanini--tRNA ligase beta subunit (Q9NSD9), residues of probe-labeled peptide): 518-530
Labeled Peptide (protein P62917 RPL8 60S ribosomal protein L8): 129-144
Labeled Peptide (protein PFDN5 Prefoldin subunit 5 (Q99471)): 20-37
Labeled Peptide (protein PPP1CA Serine/threonine-protein phosphatase PP1-alpha cat, residues of the probe-labeled peptide): 133-141
Labeled Peptide (protein PPP1CA Serine/threonine-protein phosphate PP1-alpha cat (P62136)): 133-141
Labeled Peptide (protein PPP1CB Serine/threonine-protein phosphate PP1-alpha cat (P62140)): 132-140
Labeled Peptide (protein PPP1CC Serine/threonine-protein phosphatase PP1-gamma cat, residues of the probe-labeled peptide): 133-141
Labeled Peptide (protein PPP1CC Serine/threonine-protein phosphate PP1-gamma cat (P36873)): 133-141
Labeled Peptide [1]: 144-159
Labeled Peptide [2]: 144-159
Labeled Peptide (protein PSMD11 26S proteasome non-ATPase regulatory subunit 11 (O00231)): 164-175
Labeled Peptide (protein PTCD3 Pentatricopeptide repeat-containing protein 3, mit (Q96EY7)): 119-126
Labeled Peptide (protein Q6NUK1 SCLC25A24 Calcium-binding mitochondrial carrier protein SCaM): 454-469
Labeled Peptide (protein Q15631 TSN Translin): 205-215
Labeled Peptide (protein Q92804 TAF15 TATA-binding protein-associated factor 2N): 284-297
Labeled Peptide (protein QKI Protein quaking (Q96PU8)): 192-205
Labeled Peptide (protein RUVBL1 RuvB-like 1, residues of the probe-labeled peptide): 318-333
Labeled Peptide (protein RUVBL1 RuvB-like 1, residues of the probe-modified peptide): 91-107
Labeled Peptide (protein TSN Translin, residues of the probe-modified peptide): 205-215

C#CCCC1(CCC(=O)Nc2ccc3oc(=O)ccc3c2)N=N1 [probe 3, 3-(3-(But-3-yn-1-yl)-3H-diazirin-3-yl)-N-(2-oxo-2H-chromen-6-yl)propanamide]
Labeled Peptide of H2AFZ Histone H2A.Z (Accession P0C0S5, residues of probe-labeled peptide, family Transcription factors, Regulators): 47-75
Labeled Peptide of GRWD1 Glutamate-rich WD repeat-containing protein 1 (Accession Q9BQ67, residues of probe-labeled peptide, family Uncategorized): 183-198
Labeled Peptide (H2AFZ Histone H2A.Z, residues of probe-modified peptide): 47-75
Labeled Peptide (HSD17B4 Peroxisomal multifunctional enzyme type 2, residues of probe-modified peptide): 169-183
Labeled Peptide (LMNA Prelamin-A/C (P02545), residues of the probe-labeled peptide): 172-180
Labeled Peptide (NONO (Q15233), residues of the probe-labeled peptide): 127-135
Labeled Peptide (P00387 CYB5R3 NADH-cytochrome b5 reductase 3): 235-241
Labeled Peptide (residues) of PGK1 Phosphoglycerate kinase 1 (P00558, peptide QIVWNGPVGVFEWEAFAR, PDB 2WZB): 333-350
Labeled Peptide (P12532 CKMT1B Creatine kinase U-type, mitochondrial): 257-269
Labeled Peptide (P38117 ETFB Electron transfer flavoprotein subunit beta): 36-51
Labeled Peptide (P51659 HSD17B4 multifunctional enzyme type 2): 169-183
Labeled Peptide (PARP1 (P09874), residues of the probe-labeled peptide): 954-1000
Labeled Peptide (Q08211 DHX9 ATP-dependent RNA helicase A): 448-456
Labeled Peptide (protein ABHD10 (Q9NUJ1), residues of probe-labeled peptide): 285-300
Labeled Peptide (protein ACTL6A (O96019), residues of probe-labeled peptide): 25-34
Labeled Peptide (protein ANAPC7 (Q9UJX3), residues of probe-labeled peptide): 407-424
Labeled Peptide (protein CDK5RAP3 CDK5 regulatory subuni-associated protein 3 (Q96JB5), residues of probe-labeled peptide): 351-367
Labeled Peptide (protein CKMT1B Creatine kinase U-type, mitochondria, residues of probe-labeled peptide): 257-269
Labeled Peptide (protein CKMT1B Creatine kinase U-type, motochondrial (P12532), residues of probe-labeled peptide): 257-269
Labeled Peptide (protein CYB5R3 NADH-cytochrome b5 reductase 3 (P00387), residues of probe-labeled peptide): 235-241
Labeled Peptide (protein CYB5R3 NADH-cytochrome b5 reductase 3, residues of probe-labeled peptide): 235-241
Labeled Peptide (protein DDX17 Propable ATP-dependent RNA helicase DDX17 (Q92841), residues of probe-labeled peptide): 536-547
Labeled Peptide (protein DHX9 ATP-dependent RNA helicase A (Q08211), residues of probe-labeled peptide): 448-456
Labeled Peptide (protein DHX9 ATP-dependent RNA helicase A, residues of probe-labeled peptide): 448-456
Labeled Peptide (protein EEF1G Elongation factor 1-gamma (P26641), residues of probe-labeled peptide): 58-85
Labeled Peptide (protein ETFB Electron transfer flavoprotein subunit beta (P38117), residues of probe-labeled peptide): 36-51
Labeled Peptide (protein ETFB Electron transfer flavoprotein subunit beta, residues of probe-labeled peptide): 36-51
Labeled Peptide (protein NONO Non-POU domain-containing octamer-binding protein, residues of the probe-labeled peptide): 127-135
Labeled Peptide (protein PGK1 Phosphoglycerate kinase 1 (P00558)): 333-350
Labeled Peptide (protein PGK1 Phosphoglycerate kinase 1, residues of the probe-labeled peptide): 333-350
Labeled Peptide [1]: 19-39
Labeled Peptide [2]: 19-39
Labeled Peptide (protein Q96I99 SUCLG2 Succinyl-CoA ligase): 151-160
Labeled Peptide (protein Q01105 SET Protein SET): 91-122
Labeled Peptide (protein RBMXL1 RNA binding motif protein, X-linked-like-1 (Q96E39)): 245-252

C#CCCC1(CCC(=O)NCCc2ccc3c(c2)OCO3)N=N1 [probe 15, N-(2-(Benzo[d][1,3]dioxol-5-yl)ethyl)-3-(3-(but-3-yn-1-yl)-3H-diazirin-3-yl)propanamide]
Labeled Peptide (MCM4 (P33991), residues of the probe-labeled peptide): 502-516
Labeled Peptide (NUDT12 (Q9BQG2), residues of the probe-labeled peptide): 143-166
Labeled Peptide (protein FDFT1 Squalene synthase (P37268), residues of probe-labeled peptide): 78-92
Labeled Peptide (protein FDFT1 Squalene synthase, residues of probe-labeled peptide): 78-92
